{"source": "patent US8409570B2", "about": "“Method of inducing apoptosis using anti-DR5 antibodies” (Genentech, Inc., priority 2005, dated 2013)", "key": {"[1]": {"system": "Colo 205 xenograft", "assay": "Colo 205 xenograft model, Apomabs 23.3, 25.3 and 7.3 (Example 7)", "type": "in vivo, mouse", "details": "single 3 or 10 mg/kg i.v. dose; 25-day data; FIG. 33", "description": "All mice were ear tagged for identification. […] Group 4 was administered a single 3 mg/kg/mouse i.v. dose of Apomab 23.3. Group 5 was administered a single […] i.v. dose of Apomab 23.3. […] 24 hours post treatment all mice were weighed. Tumors were measured 2×/week for the first 2 weeks and then weekly for the next 4 weeks. After 6 weeks or when the tumors reached a size of >1000 mm^3, the mice were sacrificed."}, "[2]": {"system": "Colo205 human colon carcinoma cell line", "assay": "Bioassay: tumor cell growth inhibition/killing (AlamarBlue)", "type": "cell-based", "details": "Apomab framework variants; last column of Table 12", "description": "Bioassay: tumor cell growth inhibition/killing. The apparent potency of each antibody variant was determined in an in vitro tumor cell-killing assay. Colo205 human colon carcinoma cell line was cultured in RPMI medium containing 10% fetal bovine serum. […] Cells (20,000/well) were then added to the plates. The plates were incubated at 37° C. for a total of 48 h. AlamarBlue was added to the wells for the last 3 h of incubation. Fluorescence was read using a fluorometer with excitation at 530 nm and emission of 590 nm. The data were analyzed using a four parameter curve-fitting program."}, "[3]": {"system": "human Colo 205 colon carcinoma xenograft", "assay": "Human Colo 205 carcinoma xenograft model, tumor growth delay (Example 10)", "details": "for TGD: maximum possible 193%, all treatments i.p.; for MTV(n), median tumor volume on Day 61: n = mice remaining on Day 61", "procedure": "The animals were fed ad libitum water and NIH 31 Modified and Irradiated Lab Diet® consisting of 18.0% crude protein, 5.0% crude fat, and 5.0% crude fiber. The mice were housed on irradiated ALPHA-Dri® Bed-O'Cobs® Laboratory Animal Bedding in static microisolators on a 12-hour light cycle at 21-22° C. and 40-60% humidity.\nHuman Colo 205 colon carcinoma cells were cultured in RPMI 1640 medium containing 100 units/mL penicillin G sodium, 100 μg/mL streptomycin sulfate, 0.25 μg/mL amphotericin B, and 25 μg/mL gentamicin. The medium was supplemented with 10% heat-inactivated fetal bovine serum, 2 mM glutamine, and 1 mM sodium bicarbonate. The tumor cells were cultured in tissue culture flasks in a humidified incubator at 37° C., in an atmosphere of 5% CO2 and 95% air.\nThe human Colo 205 carcinoma cells used for implantation were harvested during log phase growth and resuspended in 50% matrigel at 5×10^6 cells/mL. Each mouse was injected s.c. in the right flank with 1×10^6 cells (0.2 mL cell suspension). Tumors were monitored twice weekly and then daily as their volumes approached 100-300 mm^3 On Day 1 of the study, animals were sorted into treatment groups with tumor sizes of 108.0-220.5 mm^3 and a group mean tumor size of 149.8 mm^3 Tumor weight may be estimated with the assumption that 1 mg is equivalent to 1 mm^3 of tumor volume.\nThe test materials were provided ready for dosing. The dosing solutions were stored at 4° C.\nMice were sorted into six groups with ten mice per group. All treatments were administered intraperitoneally (i.p.).\nApo2L.0 and its vehicle were each administered once daily on Days 1-5 (qd×5). […] Control Group 1 mice were treated with the vehicle for Apo2L.0. […] In all groups, the dosing volume of 0.2 ml/20 g mouse was scaled to the body weight of each animal."}, "[4]": {"system": "Colo 205 human colon carcinoma xenografts", "assay": "Colo 205 human colon carcinoma xenografts in nude mice, tumor growth delay (Example 8)", "type": "in vivo, mouse", "details": "endpoint tumor volume 1000 mm^3; for tumor growth delay (TGD): Apo2L.0 60 mg/kg i.p. 5/2/5, Apomab 7.3 3 mg/kg i.v. Days 1, 8, B20-4.1 10 mg/kg i.p. Days 1 and 8; for tumor growth delay (TGD), percentage of control median TTE: same regimens", "description": "Xenografts were initiated from cultured Colo 205 human colon carcinoma cells. […] On the day of tumor cell implant, Colo 205 cells were harvested and resuspended in 50% Matrigel matrix (BD Biosciences) in PBS at a concentration of 5×10^6 cells/mL.\nThe test materials were kept on ice during dosing, and dosing solutions were subsequently stored at 4° C.\nTumors were measured twice weekly using calipers. […] The time to endpoint (TTE) for each mouse was calculated from the following equation: […]\nWhere b is the intercept and m is the slope of the line obtained by linear regression of a log-transformed tumor growth data set. The data set was comprised of the first observation that exceeded the study endpoint volume and the three consecutive observations that immediately preceded the attainment of the endpoint volume. […] Animals suffering treatment-related death or non-treatment related death due to metastasis were assigned a TTE value equal to the day of death. Animals suffering non-treatment related death or death of unknown causes were excluded from the TTE calculations.\nTreatment outcome was evaluated by tumor growth delay (TGD), which is defined as the increase in the median time to endpoint (TTE) in the treatment group compared to the control group: TGD=T−C,\nTreatment may cause partial regression (PR) or complete regression (CR) of tumor in an animal In a PR response, the tumor volume is 50% or less of its Day 1 volume for three consecutive measurements during the course of the study, and equal to or greater than 13.5 mm^3 for one or more of these three measurements. In a CR response, the tumor volume is less than 13 5 mm^3 for one or more of these three measurements during the course of the study. An animal with a CR response at the termination of the study is additionally classified as a tumor-free survivor (TFS). Regression responses were monitored and recorded.\nThe Logrank test was use to analyze the significance of the differences between the TTE values of treated and control groups. Two-tailed statistical analyses were conducted at significance level P=0.05, with results deemed significant at 0.01 P 0.05, and highly significant at P<0.01.\nMedian tumor growth curves show group median tumor volumes as a function of time."}, "[5]": {"system": "SKMES-1 human NSCLC xenograft", "assay": "SKMES-1 human NSCLC xenograft, tumor growth delay (Example 9)", "details": "for median TTE: 1500 mm^3 endpoint volume, 45-day study, control median TTE 18.9 days; for TGD, % of control / TGD: versus vehicle control; for TGD, % of control: maximum achievable 138%; for TGD: maximum achievable 26.1 days", "source_text": "Xenografts were initiated from SKMES-1 lung tumors maintained by serial transplantation at PRC. Each test mouse received a 1 mm^3 SKMES-1 tumor fragment implanted subcutaneously in the right flank, and tumor growth was monitored. Thirteen days later, designated as Day 1 of the study, individual tumor volumes ranged from 63 to 144 mm^3, and the animals were sorted into four groups each consisting of ten mice and two groups each consisting of nine mice. Mean tumor volumes were 93 to 95 mm^3.\nAll test materials were provided ready to dose at 0.1 mL per 20 g body weight (5 mL/kg), and were stored at −80° C. upon receipt. The test materials were thawed on the first day of dosing, kept on ice during dosing, then subsequently stored at 4° C. Carboplatin ([…] ® injection, Bristol Myers Squibb) was diluted with 5% dextrose in water (D5W) to yield the desired dose in a volume of 0.2 mL per 10 g body weight (10 mL/kg). Paclitaxel (Natural Pharmaceuticals, Inc.) was diluted with D5W on each day of dosing from a 10× stock solution to yield a vehicle consisting of 5% ethanol and 5% Cremophor EL in 90% D5W (5% EC vehicle), so that the desired dose was delivered in 0.1 mL per 20 g body weight.\nGroup 1 (vehicle control) mice received vehicle administered intraperitoneally once daily for five days (i.p. qd×5), and served as tumor growth controls. […] Each dose was administered in the volume indicated in the previous section, and was scaled to the body weight of the animal."}, "[6]": {"system": "HCT15 xenograft model of colorectal cancer", "assay": "HCT15 xenograft model", "type": "in vivo, mouse", "details": "Apomab 7.3 10 mg/kg, CPT-11 80 mg/kg, alone or combined; FIG. 26"}, "[7]": {"system": "Colo 205 human colon carcinoma xenograft", "assay": "Colo 205 xenograft athymic nude mouse model (Example 2)", "type": "in vivo", "description": "All mice were ear-tagged for identification. Once the tumor volume was approximately 100-200 mm^3, the Colo 205 tumor-bearing mice were randomly grouped and treatment was administered.\nIn some instances, 3 or 4 mice were euthanized from the vehicle and 10 mg/kg groups, and serum and tumors were collected at 5 minutes, 24 hours or 48 hours post treatment for serum drug concentration and tumor histology studies. In the remaining mice, tumor measurements were taken twice a week for the first 2 weeks, then once a week for another 4 weeks."}, "[8]": {"system": "H2122 xenograft", "assay": "H2122 xenograft model of human lung cancer", "type": "in vivo, mouse", "description": "All mice were ear tagged for identification.\nAll mice were ear tagged for identification. […] Any mice excluded from the treatment groups were euthanized.\nGroup A was a vehicle-treated control group (0.5 M arginine succinate, 20 mM Tris, 0.02% Tween 20, pH 7.2). […] 48 hours following the first treatment, three mice from each of Groups B, C and D were euthanized, and their tumors were collected as follows. One tumor was preserved in 10% formalin for histology study. One tumor was frozen in liquid nitrogen for RNA studies. One tumor was frozen in liquid nitrogen for Western blot. Tumor measurements were taken 2×/week for the first 2 weeks then 1×/week for the next 4 weeks."}, "[9]": {"system": "BxPC3 xenograft", "assay": "BxPC3 xenograft model of human pancreatic adenocarcinoma", "type": "in vivo, mouse", "details": "Apomab 7.3 10 mg/kg i.v., gemcitabine 160 mg/kg ip; FIG. 29"}}, "data": [{"compound": "Apomab 25.3: Apomab version with heavy chain framework residues Q LVQ K", "values": [{"measurement": "anticancer activity", "setting": "[1]", "result": "significant anticancer activity"}]}, {"compound": "Apomab 18.3: Apomab version with heavy chain framework residues E LVQ K", "values": [{"measurement": "Bioassay activity with crosslinking", "setting": "[2]", "result": "None"}]}, {"compound": "Apo2L.0: soluble form of Apo-2 ligand (TRAIL), 114-281 extracellular domain sequence", "values": [{"measurement": "median TTE", "setting": "[3]; 1500 mm^3 endpoint volume, 61-day study, control median TTE 20.8 days", "result": 53.6, "unit": "days"}, {"measurement": "TGD", "setting": "[3]", "result": 158, "unit": "%"}, {"measurement": "MTV(n), median tumor volume on Day 61", "setting": "[3]", "result": "1,210 mm^3"}, {"measurement": "LTTFS (long-term tumor-free survivor)", "setting": "[3]; ten mice per group", "result": "One"}, {"measurement": "T-C", "setting": "[3]; versus vehicle control", "result": 32.8, "unit": "days"}, {"measurement": "tumor growth delay (TGD)", "setting": "[4]", "result": 28.4, "unit": "days"}, {"measurement": "tumor growth delay (TGD), percentage of control median TTE", "setting": "[4]", "result": 190, "unit": "%"}, {"measurement": "median TTE", "setting": "[5]", "result": 22.9, "unit": "days"}, {"measurement": "TGD, % of control", "setting": "[5]", "result": 21, "unit": "%"}, {"measurement": "TGD", "setting": "[5]", "result": 4.0, "unit": "days"}]}, {"compound": "Apomab 7.3: anti-DR5 IgG: heavy chain TH7 (G33A, N53Q, L102Y) + light chain TL3 (Q24S, K51A, R91A); SEQ ID NOS: 18 and 20", "values": [{"measurement": "TGD", "setting": "[3]", "result": 193, "unit": "%"}, {"measurement": "MTV(n), median tumor volume on Day 61", "setting": "[3]", "result": 776, "unit": "mm^3"}, {"measurement": "61-day survivors", "setting": "[3]; ten mice per group", "result": "six"}, {"measurement": "LTTFS (long-term tumor-free survivor)", "setting": "[3]; ten mice per group", "result": "One"}, {"measurement": "PR responses", "setting": "[3]; ten mice per group", "result": "three"}, {"measurement": "transient CR response", "setting": "[3]; ten mice per group", "result": "one"}, {"measurement": "tumor growth delay (TGD)", "setting": "[4]", "result": 53.0, "unit": "days"}, {"measurement": "tumor growth delay (TGD), percentage of control median TTE", "setting": "[4]", "result": 355, "unit": "%"}, {"measurement": "anticancer activity", "setting": "[6]", "result": "effective when administered alone"}, {"measurement": "reversal of efficacy during test period", "setting": "[7]; 1 mg/kg and 3 mg/kg doses, 20-day test period, FIG. 23", "result": "does not show any reversal during the 20-day test period"}, {"measurement": "reduction of tumor volume", "setting": "[7]; 1 mg/kg and 3 mg/kg doses, FIG. 23", "result": "effective in reducing tumor volume"}, {"measurement": "anticancer activity compared with Apomabs 23.3 and 25.3", "setting": "[7]; FIG. 24", "result": "far exceeded the activity of Apomabs 23.3 and 25.3"}, {"measurement": "reduction of (mean) tumor volume", "setting": "[7]; single intraperitoneal dose 3 or 10 mg/kg, FIGS. 21 and 22, efficacy essentially the same as 16E2 version 1", "result": "highly efficient in reducing tumor volume"}, {"measurement": "dose-response efficacy", "setting": "[8]; 1, 3 and 10 mg/kg single IV dose, FIG. 32", "result": "efficacious in all doses tested"}, {"measurement": "mice with complete response (CR)", "setting": "[8]; 6 mice/group, without any reversal during the 70-day treatment period", "result": "All six"}, {"measurement": "anticancer activity", "setting": "[9]", "result": "far superior to the efficacy of gemcitabine"}, {"measurement": "median TTE", "setting": "[5]", "result": 2.0, "unit": "days"}, {"measurement": "regression responses", "setting": "[5]; mouse, in vivo", "result": "No regression responses were documented"}, {"measurement": "TGD, % of control", "setting": "[5]", "result": 38, "unit": "%"}, {"measurement": "TGD", "setting": "[5]", "result": 7.1, "unit": "days"}, {"measurement": "anticancer activity", "setting": "[1]", "result": "significant anticancer activity"}]}, {"compound": "Apomab 27.3: Apomab version with heavy chain framework residues E VER K", "values": [{"measurement": "Bioassay activity with crosslinking", "setting": "[2]", "result": "none"}]}, {"compound": "CCc1c2c(nc3ccc(OC(=O)N4CCC(N5CCCCC5)CC4)cc13)-c1cc3c(c(=O)n1C2)COC(=O)[C@]3(O)CC", "note": "[CPT-11, irinotecan, reference compound]", "values": [{"measurement": "anticancer activity", "setting": "[6]", "result": "effective when administered alone"}]}]}
